# Experimental data as given in US8802597B2, “Herbicidal pyrimidines” (E I du Pont de Nemours and Company, priority 2003, dated 2014).
# Tests used:
# Type in all cases: in vivo
# [1] = tested on: barnyardgrass (Echinochloa crus-galli); assay: Test A pre/postemergence
# In short: (§1)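 Visual injury scores on a 0–100 scale, 100 being complete control, were assigned roughly ten days after treatment by comparison with untreated greenhouse controls. Test chemicals, formulated with surfactant in non-phytotoxic solvent, were sprayed onto soil preemergence and onto 1–2-leaf plants 2–10 cm tall postemergence.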
# [2] = tested on: redroot pigweed (Amaranthus retroflexus); assay: Test A pre/postemergence
# In short: as §1
# [3] = tested on: velvetleaf (Abutilon theophrasti); assay: Test A pre/postemergence
# In short: as §1
# [4] = tested on: giant foxtail (Setaria faberi); assay: Test A pre/postemergence
# In short: as §1
# [5] = tested on: crabgrass (Digitaria sanguinalis); assay: Test A pre/postemergence
# In short: as §1
# [6] = tested on: morningglory (Ipomoea spp.); assay: Test A pre/postemergence
# In short: as §1
# [7] = tested on: johnsongrass (Sorghum halepense); assay: Test C pre/postemergence; conditions: for Plant response rating, Johnsongrass: Preemergence
# In short: (§2)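 We sprayed seeded pots preemergence and 2–18 cm seedlings postemergence with test chemicals in a non-phytotoxic solvent mixture including surfactant. Greenhouse plants were visually compared with untreated controls at 12 to 14 days and scored 0 (no effect) to 100 (complete control).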
# [8] = tested on: lambsquarters (Chenopodium album); assay: Test C pre/postemergence; conditions: for Plant response rating, Lambsquarters: Preemergence
# In short: as §2
# [9] = tested on: bermudagrass (Cynodon dactylon); assay: Test C pre/postemergence; conditions: for Plant response rating (scale of 0 to 100), Bermudagrass / Bermudagrass plant response rating: Postemergence; for Bermudagrass plant response rating: scale 0 to 100 (0 no effect, 100 complete control); for Plant response rating, Bermudagrass: Preemergence
# In short: as §2
# [10] = tested on: soybean (Glycine max); assay: Test C pre/postemergence; conditions: for Plant response rating, Soybean: Preemergence, scale 0 to 100, 0 no effect, 100 complete control
# In short: as §2
# [11] = tested on: chickweed (Stellaria media); assay: Test C postemergence
# In short: as §2
# [12] = Postemergence, 125 g ai/ha, 0 to 100 scale (0 no effect, 100 complete control)
# [13] = Postemergence, 500 g ai/ha, 0 to 100 scale (0 no effect, 100 complete control)
# [14] = Preemergence, 125 g ai/ha, 0 to 100 scale where 0 is no effect and 100 is complete control, approximately ten days
# [15] = Preemergence, 500 g ai/ha, 0 to 100 scale where 0 is no effect and 100 is complete control, approximately ten days
# [16] = Postemergence, 125 g ai/ha, scale 0 to 100 (0 no effect, 100 complete control)
# [17] = 16 g ai/ha, scale 0 to 100, 0 no effect, 100 complete control
# [18] = 31 g ai/ha, scale 0 to 100, 0 no effect, 100 complete control
# [19] = 62 g ai/ha, scale 0 to 100, 0 no effect, 100 complete control
smiles,measurement,setting,value
CCCCOC(=O)c1nc(C2CC2)nc(N)c1Cl [Compound 76],"Plant response rating, Barnyardgrass",[1]; [12],90
same,"Plant response rating, Barnyardgrass",[1]; [13],90
same,"Plant response rating, Barnyardgrass",[1]; [14],75
same,"Plant response rating, Barnyardgrass",[1]; [15],90
same,"Plant response rating, Pigweed",[2]; [12],85
same,"Plant response rating, Pigweed",[2]; [13],95
same,"Plant response rating, Pigweed",[2]; [14],80
same,"Plant response rating, Pigweed",[2]; [15],90
same,"Plant response rating, Velvetleaf",[3]; [12],80
same,"Plant response rating, Velvetleaf",[3]; [13],100
same,"Plant response rating, Velvetleaf",[3]; [14],90
same,"Plant response rating, Velvetleaf",[3]; [15],100
same,"Plant response rating, Foxtail, Giant",[4]; [12],90
same,"Plant response rating, Foxtail, Giant",[4]; [13],90
same,"Plant response rating, Foxtail, Giant",[4]; [14],70
same,"Plant response rating, Foxtail, Giant",[4]; [15],85
same,"Plant response rating, Crabgrass",[5]; [12],45
same,"Plant response rating, Crabgrass",[5]; [13],70
same,"Plant response rating, Crabgrass",[5]; [14],30
same,"Plant response rating, Crabgrass",[5]; [15],75
same,"Plant response rating, Morningglory",[6]; [12],90
same,"Plant response rating, Morningglory",[6]; [13],95
same,"Plant response rating, Morningglory",[6]; [14],100
same,"Plant response rating, Morningglory",[6]; [15],100
same,"Plant response rating (scale of 0 to 100), Johnsongrass","[7]; Postemergence, 16 g ai/ha",25
same,"Plant response rating (scale of 0 to 100), Johnsongrass","[7]; Postemergence, 31 g ai/ha",65
same,Johnsongrass plant response rating,[7]; [16],95
same,"Plant response rating, Johnsongrass",[7]; [17],0
same,"Plant response rating, Johnsongrass",[7]; [18],0
same,"Plant response rating, Johnsongrass",[7]; [19],20
same,"Plant response rating, Johnsongrass","[7]; 125 g ai/ha, scale 0 to 100",50
same,"Plant response rating (scale of 0 to 100), Lambsquarters","[8]; Postemergence, 16 g ai/ha",90
same,"Plant response rating (scale of 0 to 100), Lambsquarters","[8]; Postemergence, 31 g ai/ha",95
same,"Plant response rating (scale of 0 to 100), Lambsquarters","[8]; Postemergence, 62 g ai/ha",100
same,Lambsquarters plant response rating,[8]; [16],100
same,"Plant response rating, Lambsquarters",[8]; [17],70
same,"Plant response rating, Lambsquarters",[8]; [18],70
same,"Plant response rating, Lambsquarters",[8]; [19],80
same,"Plant response rating, Lambsquarters","[8]; 125 g ai/ha, scale 0 to 100",80
same,"Plant response rating (scale of 0 to 100), Bermudagrass",[9]; 16 g ai/ha,15
same,"Plant response rating (scale of 0 to 100), Bermudagrass",[9]; 31 g ai/ha,70
same,Bermudagrass plant response rating,[9]; 62 g ai/ha,75
same,Bermudagrass plant response rating,[9]; 125 g ai/ha,75
same,"Plant response rating, Bermudagrass",[9]; [17],0
same,"Plant response rating, Bermudagrass",[9]; [18],0
same,"Plant response rating, Bermudagrass",[9]; [19],0
same,"Plant response rating, Bermudagrass","[9]; 125 g ai/ha, scale 0 to 100",0
same,"Plant response rating (scale of 0 to 100), Soybean","[10]; Postemergence, 16 g ai/ha",95
same,"Plant response rating (scale of 0 to 100), Soybean","[10]; Postemergence, 31 g ai/ha",95
same,"Plant response rating (scale of 0 to 100), Soybean","[10]; Postemergence, 62 g ai/ha",95
same,Soybean plant response rating,[10]; [16],100
same,"Plant response rating, Soybean",[10]; 16 g ai/ha,50
same,"Plant response rating, Soybean",[10]; 31 g ai/ha,70
same,"Plant response rating, Soybean",[10]; 62 g ai/ha,95
same,"Plant response rating (scale of 0 to 100), Chickweed",[11]; 16 g ai/ha,35
same,"Plant response rating (scale of 0 to 100), Chickweed",[11]; 31 g ai/ha,45
same,"Plant response rating (scale of 0 to 100), Chickweed",[11]; 62 g ai/ha,70
same,Chickweed plant response rating,"[11]; 125 g ai/ha, scale 0 to 100 (0 no effect, 100 complete control)",95
